Measurements taken from patent US9688710B2, “Inhibitors of sodium glucose cotransporter 1” (LEXICON PHARMACEUTICALS, INC., priority 2012, dated 2017).

Key:
[1] = target: Human sodium/glucose co-transporter type 2 (SGLT2) (Homo sapiens (Human), UniProt P31639); assay: In vitro human SGLT2 inhibition assay (14C-AMG uptake); format: cell-based; details: HEK293 cells expressing human HA-SGLT2, 14C-AMG uptake
Experimental: Human sodium/glucose co-transporter type 2 (SGLT2; accession number P31639; GI:400337) was cloned into pIRESpuro2 vector for mammalian expression (construct: HA-SGLT2-pIRESpuro2).
HEK293 cells were transfected with the human HA-SGLT2-pIRESpuro2 vector and the bulk stable cell line was selected in presence of 0.5 μg/mL of puromycin. Human HA-SGLT2 cells were maintained in DMEM media containing 10% FBS, 1% GPS and 0.5 μg/mL of puromycin.
The HEK293 cells expressing the human HA-SGLT2 were seeded in 384 well plates (30,000 cells/well) in DMEM media containing 10% FBS, 1% GPS and 0.5 μg/mL of puromycin, then incubated overnight at 37 C, 5% CO2. Cells were then washed with uptake buffer (140 mM NaCl, 2 mM KCl, 1 mM CaCl2, 1 mM MgCl2, 10 mM HEPES, 5 mM Tris, 1 mg/mL bovine serum albumin (BSA), pH 7.3). Twenty microliters of uptake buffer with or without testing compounds were added to the cells. Then, 20 microliters of uptake buffer containing ^14C-AMG (100 nCi) were added to the cells. The cell plates were incubated at 37° C., 5% CO2 for 1-2 hours. After washing the cells with uptake buffer, scintillation fluid was added (40 microliters/well) and ^14C-AMG uptake was measured by counting radioactivity using a scintillation coulter (TopCoulter NXT; Packard Instruments).

[2] = target: Human sodium/glucose co-transporter type 1 (SGLT1) (Homo sapiens (Human), UniProt P13866); assay: In vitro human SGLT1 inhibition assay (14C-AMG uptake); format: cell-based; design: key to SGLT1 (human SGLT1 IC50): ***: a value less than 0.01 μM; **: a value less than 0.1 μM; *: a value less than 1 μM; —: a value not measured or exceeding μM; details: HEK293 cells expressing human HA-SGLT1, 14C-AMG uptake
Experimental: Human sodium/glucose co-transporter type 1 (SGLT1; accession number NP_000334; GI: 4507031) was cloned into pIRESpuro2 vector for mammalian expression (construct: HA-SGLT1-pIRESpuro2).
HEK293 cells were transfected with the human HA-SGLT1-pIRESpuro2 vector and the bulk stable cell line was selected in presence of 0.5 μg/mL of puromycin. Human HA-SGLT1 cells were maintained in DMEM media containing 10% FBS, 1% GPS and 0.5 μg/mL of puromycin.
The HEK293 cells expressing the human HA-SGLT1 were seeded in 384 well plates (30,000 cells/well) in DMEM media containing 10% FBS, 1% GPS and 0.5 μg/mL of puromycin, then incubated overnight at 37 C, 5% CO2. Cells were then washed with uptake buffer (140 mM NaCl, 2 mM KCl, 1 mM CaCl2, 1 mM MgCl2, 10 mM HEPES, 5 mM Tris, 1 mg/mL bovine serum albumin (BSA), pH 7.3). Twenty microliters of uptake buffer with or without testing compounds were added to the cells. Then, 20 microliters of uptake buffer containing ^14C-AMG (100 nCi) were also added to cells. The cell plates were incubated at 37° C., 5% CO2 for 1-2 hours. After washing the cells with uptake buffer, scintillation fluid was added (40 microliters/well) and ^14C-AMG uptake was measured by counting radioactivity using a scintillation coulter (TopCoulter NXT; Packard Instruments).

Human sodium/glucose co-transporter type 1 (SGLT1), sequence (P13866 whole entry): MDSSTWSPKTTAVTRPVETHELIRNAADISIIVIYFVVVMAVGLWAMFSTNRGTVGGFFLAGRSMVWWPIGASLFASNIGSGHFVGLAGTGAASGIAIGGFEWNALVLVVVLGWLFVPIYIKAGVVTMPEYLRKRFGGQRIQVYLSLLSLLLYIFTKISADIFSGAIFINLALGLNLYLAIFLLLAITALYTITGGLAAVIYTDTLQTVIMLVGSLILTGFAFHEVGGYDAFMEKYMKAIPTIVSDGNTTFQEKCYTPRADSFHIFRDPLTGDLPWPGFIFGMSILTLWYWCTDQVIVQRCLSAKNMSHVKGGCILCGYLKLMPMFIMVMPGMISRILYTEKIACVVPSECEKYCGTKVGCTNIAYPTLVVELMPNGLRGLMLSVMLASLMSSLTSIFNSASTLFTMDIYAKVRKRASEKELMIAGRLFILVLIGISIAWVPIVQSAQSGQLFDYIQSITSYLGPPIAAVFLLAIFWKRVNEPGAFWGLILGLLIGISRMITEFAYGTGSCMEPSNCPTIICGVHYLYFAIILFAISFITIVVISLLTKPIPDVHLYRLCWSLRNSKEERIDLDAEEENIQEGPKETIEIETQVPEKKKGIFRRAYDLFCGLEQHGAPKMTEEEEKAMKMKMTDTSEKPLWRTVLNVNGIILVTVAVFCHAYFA
Human sodium/glucose co-transporter type 2 (SGLT2), sequence (P31639 whole entry): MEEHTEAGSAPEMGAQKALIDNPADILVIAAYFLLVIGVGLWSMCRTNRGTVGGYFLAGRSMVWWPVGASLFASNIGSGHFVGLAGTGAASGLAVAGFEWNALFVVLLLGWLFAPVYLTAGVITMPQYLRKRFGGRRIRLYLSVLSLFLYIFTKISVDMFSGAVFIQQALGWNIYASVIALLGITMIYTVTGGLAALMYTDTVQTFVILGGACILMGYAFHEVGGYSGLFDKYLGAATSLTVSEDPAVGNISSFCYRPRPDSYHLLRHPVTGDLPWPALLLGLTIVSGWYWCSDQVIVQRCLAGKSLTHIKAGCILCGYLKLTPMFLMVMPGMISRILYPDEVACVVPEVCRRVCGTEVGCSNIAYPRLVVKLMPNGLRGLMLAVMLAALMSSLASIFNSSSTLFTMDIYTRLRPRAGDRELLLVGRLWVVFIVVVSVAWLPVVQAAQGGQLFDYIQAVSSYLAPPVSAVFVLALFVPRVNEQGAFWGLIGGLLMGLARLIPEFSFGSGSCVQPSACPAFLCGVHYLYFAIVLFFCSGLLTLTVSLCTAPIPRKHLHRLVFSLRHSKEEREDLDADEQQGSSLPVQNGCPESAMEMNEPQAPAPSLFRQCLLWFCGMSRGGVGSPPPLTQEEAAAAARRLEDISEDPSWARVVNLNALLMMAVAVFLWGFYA

| IC50 [1] | IC50 [2] | SGLT1 (human SGLT1 IC50) [2] | Compound |
| --- | --- | --- | --- |
| < 10 nM | < 10 nM |  | CS[C@H]1O[C@@H](c2ccc(C)c(Cc3ccc(CCCCNC(=O)C(C)(C)CO)cc3)c2)[C@H](O)[C@@H](O)[C@@H]1O [3-hydroxy-2,2-dimethyl-N-(4-(4-(2-methyl-5-((2S,3R,4R,5S,6R)-3,4,5-trihydroxy-6-(methylthio)tetrahydro-2H-pyran-2-yl)benzyl)phenyl)butyl)propanamide] |
| < 10 nM | < 100 nM |  | CS[C@H]1O[C@@H](c2ccc(C)c(Cc3ccc(OCCCC(=O)N4CCN(C)CC4)cc3)c2)[C@H](O)[C@@H](O)[C@@H]1O [4-(4-(2-methyl-5-((2S,3R,4R,5S,6R)-3,4,5-trihydroxy-6-(methylthio)tetrahydro-2H-pyran-2-yl)benzyl)phenoxy)-1-(4-methylpiperazin-1-yl)butan-1-one] |
| < 10 nM | < 10 nM |  | CS[C@H]1O[C@@H](c2ccc(C)c(Cc3ccc(OCCCC(=O)NC4(C(=O)N5CCN(C)CC5)CCCC4)cc3)c2)[C@H](O)[C@@H](O)[C@@H]1O [4-(4-(2-methyl-5-((2S,3R,4R,5S,6R)-3,4,5-trihydroxy-6-(methylthio)tetrahydro-2H-pyran-2-yl)benzyl)phenoxy)-N-(1-(4-methylpiperazine-1-carbonyl)cyclopentyl)butanamide] |
| < 10 nM | < 100 nM |  | CS[C@H]1O[C@@H](c2ccc(C)c(Cc3ccc(OCCCC(N)=O)cc3)c2)[C@H](O)[C@@H](O)[C@@H]1O [4-(4-(2-methyl-5-((2S,3R,4R,5S,6R)-3,4,5-trihydroxy-6-(methylthio)tetrahydro-2H-pyran-2-yl)benzyl)phenoxy)butanamide] |
| < 100 nM |  | — | CS[C@H]1O[C@@H](c2ccc(C)c(Cc3ccc(OCCCC(=O)O)cc3)c2)[C@H](O)[C@@H](O)[C@@H]1O [4-(4-(2-methyl-5-((2S,3R,4R,5S,6R)-3,4,5-trihydroxy-6-(methylthio)tetrahydro-2H-pyran-2-yl)benzyl)phenoxy)butanoic acid] |
| < 10 nM | < 100 nM |  | CS[C@H]1O[C@@H](c2ccc(C)c(Cc3ccc(CCCC(=O)N4CCN(C)CC4)cc3)c2)[C@H](O)[C@@H](O)[C@@H]1O [4-(4-(2-methyl-5-((2S,3R,4R,5S,6R)-3,4,5-trihydroxy-6-(methylthio)tetrahydro-2H-pyran-2-yl)benzyl)phenyl)-1-(4-methylpiperazin-1-yl)butan-1-one] |
| < 10 nM | < 10 nM |  | CS[C@H]1O[C@@H](c2ccc(C)c(Cc3ccc(CCCC(=O)NC4(C(=O)N5CCN(C)CC5)CCCC4)cc3)c2)[C@H](O)[C@@H](O)[C@@H]1O [4-(4-(2-methyl-5-((2S,3R,4R,5S,6R)-3,4,5-trihydroxy-6-(methylthio)tetrahydro-2H-pyran-2-yl)benzyl)phenyl)-N-(1-(4-methylpiperazine-1-carbonyl)cyclopentyl)butanamide] |
| < 10 nM | < 10 nM |  | CS[C@H]1O[C@@H](c2ccc(C)c(Cc3ccc(CCCC(=O)NC4(C(=O)N5CCN(C)CC5)CC4)cc3)c2)[C@H](O)[C@@H](O)[C@@H]1O [4-(4-(2-methyl-5-((2S,3R,4R,5S,6R)-3,4,5-trihydroxy-6-(methylthio)tetrahydro-2H-pyran-2-yl)benzyl)phenyl)-N-(1-(4-methylpiperazine-1-carbonyl)cyclopropyl)butanamide] |
| < 10 nM | < 10 nM |  | CS[C@H]1O[C@@H](c2ccc(C)c(Cc3ccc(CCCC(=O)NCC(=O)N4CCN(C)CC4)cc3)c2)[C@H](O)[C@@H](O)[C@@H]1O [4-(4-(2-methyl-5-((2S,3R,4R,5S,6R)-3,4,5-trihydroxy-6-(methylthio)tetrahydro-2H-pyran-2-yl)benzyl)phenyl)-N-(2-(4-methylpiperazin-1-yl)-2-oxoethyl)butanamide] |
| < 10 nM | < 10 nM |  | CS[C@H]1O[C@@H](c2ccc(C)c(Cc3ccc(CCCC(=O)NC4(C(=O)N5CCN(C)CC5)CCOCC4)cc3)c2)[C@H](O)[C@@H](O)[C@@H]1O [4-(4-(2-methyl-5-((2S,3R,4R,5S,6R)-3,4,5-trihydroxy-6-(methylthio)tetrahydro-2H-pyran-2-yl)benzyl)phenyl)-N-(4-(4-methylpiperazine-1-carbonyl)tetrahydro-2H-pyran-4-yl)butanamide] |

Further lines, the compound ahead of its results:

| Compound | IC50 [1] | IC50 [2] | SGLT1 (human SGLT1 IC50) [2] |
| --- | --- | --- | --- |
| CS[C@H]1O[C@@H](c2ccc(Cl)c(Cc3ccc(OCCCC(=O)N(CCO)CCO)cc3)c2)[C@H](O)[C@@H](O)[C@@H]1O [4-(4-(2-chloro-5-((2S,3R,4R,5S,6R)-3,4,5-trihydroxy-6-(methylthio)tetrahydro-2H-pyran-2-yl)benzyl)phenoxy)-N,N-bis(2-hydroxyethyl)butanamide] | < 10 nM | < 100 nM |  |
| CCN(CC)C(=O)CCCOc1ccc(Cc2cc([C@@H]3O[C@H](SC)[C@@H](O)[C@H](O)[C@H]3O)ccc2Cl)cc1 [4-(4-(2-chloro-5-((2S,3R,4R,5S,6R)-3,4,5-trihydroxy-6-(methylthio)tetrahydro-2H-pyran-2-yl)benzyl)phenoxy)-N,N-diethylbutanamide] | < 10 nM | < 100 nM |  |
| CS[C@H]1O[C@@H](c2ccc(Cl)c(Cc3ccc(OCCCC(=O)NC(CO)(CO)CO)cc3)c2)[C@H](O)[C@@H](O)[C@@H]1O [4-(4-(2-chloro-5-((2S,3R,4R,5S,6R)-3,4,5-trihydroxy-6-(methylthio)tetrahydro-2H-pyran-2-yl)benzyl)phenoxy)-N-(1,3-dihydroxy-2-(hydroxymethyl)propan-2-yl)butanamide] | < 10 nM | < 100 nM |  |
| CS[C@H]1O[C@@H](c2ccc(Cl)c(Cc3ccc(OCCCC(=O)N(C)C(C)(C)CO)cc3)c2)[C@H](O)[C@@H](O)[C@@H]1O [4-(4-(2-chloro-5-((2S,3R,4R,5S,6R)-3,4,5-trihydroxy-6-(methylthio)tetrahydro-2H-pyran-2-yl)benzyl)phenoxy)-N-(1-hydroxy-2-methylpropan-2-yl)-N-methylbutanamide] | < 10 nM | < 100 nM |  |
| CS[C@H]1O[C@@H](c2ccc(Cl)c(Cc3ccc(OCCCC(=O)NC(C)(C)CO)cc3)c2)[C@H](O)[C@@H](O)[C@@H]1O [4-(4-(2-chloro-5-((2S,3R,4R,5S,6R)-3,4,5-trihydroxy-6-(methylthio)tetrahydro-2H-pyran-2-yl)benzyl)phenoxy)-N-(1-hydroxy-2-methylpropan-2-yl)butanamide] | < 10 nM | < 10 nM |  |
| CS[C@H]1O[C@@H](c2ccc(Cl)c(Cc3ccc(OCCCC(=O)NC4CCCCC4N4CCOCC4)cc3)c2)[C@H](O)[C@@H](O)[C@@H]1O (stereo partly drawn) [4-(4-(2-chloro-5-((2S,3R,4R,5S,6R)-3,4,5-trihydroxy-6-(methylthio)tetrahydro-2H-pyran-2-yl)benzyl)phenoxy)-N-(2-morpholinocyclohexyl)butanamide] | < 10 nM | < 100 nM |  |
| CCNC(=O)CCCOc1ccc(Cc2cc([C@@H]3O[C@H](SC)[C@@H](O)[C@H](O)[C@H]3O)ccc2Cl)cc1 [4-(4-(2-chloro-5-((2S,3R,4R,5S,6R)-3,4,5-trihydroxy-6-(methylthio)tetrahydro-2H-pyran-2-yl)benzyl)phenoxy)-N-ethylbutanamide] | < 10 nM | < 100 nM |  |
| CS[C@H]1O[C@@H](c2ccc(Cl)c(Cc3ccc(OCCCC(=O)O)cc3)c2)[C@H](O)[C@@H](O)[C@@H]1O [4-(4-(2-chloro-5-((2S,3R,4R,5S,6R)-3,4,5-trihydroxy-6-(methylthio)tetrahydro-2H-pyran-2-yl)benzyl)phenoxy)butanoic acid] | < 10 nM | < 1000 nM |  |
